Literature values in US7074553B2, “Retrovirus associated with myelodysplastic syndromes and uses thereof” (Rush University Medical Center, priority 2000, dated 2006).

B1: G-CSF: colony-stimulating growth factor designed to stimulate proliferation of hematopoietic progenitors (protein, UniProt P09919 31-207, looked up)
Granulocyte …: TPLGPASSLPQSFLLKCLEQVRKIQGDGAALQEKLVSECATYKLCHPEELVLLGHSLGIPWAPLSSCPSQALQLAGCLSQLHSGLFLYQGLLQALEGISPELGPTLDTLQLDVADFATTIWQQMEELGMAPALQPTQGAMPAFASAFQRRAGGVLVASHLQSFLEVSYRVLRHLAQP

System: anemia and thrombocytopenia of MDS patients
Conditions: administered as single agents

Row | Molecule | improvement of the anemia and the thrombocytopenia
1 | granulocyte-macrophage colony-stimulating factor [GM-CSF] | rarely improves
2 | B1 | rarely improves
